Values quoted from earlier work as cited in patent publication US20050267009A1, “Method of Treatment of Acute and Persistent Pain” (priority 2004, published 2005).
Like-named read-outs stand apart in the source and are kept apart here.

How the values were obtained:
[1] = tested on: glia and proinflammatory cytokines; conditions: intrathecal
nerve root injury = conditions: topical application of disk tissue (nucleus pulposus)
trigeminal nerve fibers = conditions: dura mater
NOS-2 = conditions: macrophages and astroglial cells, decreased NOS-2 activity and protein
interleukin-10 = conditions: prolonged administration
spinal VR1 receptors = target: T1, spinal VR1 receptors (Rattus norvegicus, UniProt O35433); conditions: spinal 0.5-30 microM; greater extent in sham operated than SNL rats
T1 construct: VR1 receptors, present on Adelta- and C-fibres and post-synaptic sites within the spinal cord dorsal horn; endogenous in cells; host or cells: rat spinal cord, in vivo electrophysiology
T1 sequence (O35433 whole entry): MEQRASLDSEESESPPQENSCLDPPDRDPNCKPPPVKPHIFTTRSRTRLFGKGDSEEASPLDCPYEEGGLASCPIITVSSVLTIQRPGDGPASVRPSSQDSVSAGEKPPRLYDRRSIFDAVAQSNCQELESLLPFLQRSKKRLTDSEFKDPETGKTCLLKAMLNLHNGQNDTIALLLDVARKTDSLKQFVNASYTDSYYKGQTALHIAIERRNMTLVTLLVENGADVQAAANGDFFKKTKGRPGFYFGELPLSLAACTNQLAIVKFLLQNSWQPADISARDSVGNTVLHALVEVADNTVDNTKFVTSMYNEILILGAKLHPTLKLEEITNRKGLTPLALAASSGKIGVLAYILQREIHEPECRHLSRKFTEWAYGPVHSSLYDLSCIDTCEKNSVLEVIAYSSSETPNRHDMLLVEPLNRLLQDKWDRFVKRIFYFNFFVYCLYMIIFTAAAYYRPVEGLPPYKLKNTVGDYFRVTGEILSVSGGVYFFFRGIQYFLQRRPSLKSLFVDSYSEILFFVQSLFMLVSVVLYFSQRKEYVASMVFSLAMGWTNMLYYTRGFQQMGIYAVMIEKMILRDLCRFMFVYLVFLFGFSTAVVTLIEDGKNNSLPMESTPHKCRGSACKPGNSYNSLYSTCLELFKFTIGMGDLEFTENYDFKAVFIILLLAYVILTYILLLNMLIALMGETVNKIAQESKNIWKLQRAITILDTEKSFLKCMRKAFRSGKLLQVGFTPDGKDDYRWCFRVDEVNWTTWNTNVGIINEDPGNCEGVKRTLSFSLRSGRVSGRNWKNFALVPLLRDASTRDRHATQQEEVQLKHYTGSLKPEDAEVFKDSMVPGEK

COX = conditions: 5 and 7 days after injection
prostaglandin E2 (PGE2) = conditions: 10 days after CCI, treatment started 12 hours after surgery
[2] = tested on: spinal neuronal responses
nociceptors = conditions: rat skin in vitro; for sensitization of the heat-evoked CGRP release: applied alone; for EC(50) of heat sensitization of CGRP release: heat-evoked CGRP release
[3] = human, in vivo
[4] = in vivo
[5] = tested on: spinal cord nociceptive transmission; conditions: for wind-up activity: normal rats
[6] = systemic HU210 60 microg/kg, sham-operated rats

Molecule: N=C(N)NC(=O)c1nc(Cl)c(N)nc1N [Amiloride]
- blockade of ASICs (ASICs): not potent and not selective

Molecule: C/C(=N\N=C(N)N)c1cc(NC(=O)CCCCCCCCC(=O)Nc2cc(/C(C)=N/N=C(N)N)cc(/C(C)=N/N=C(N)N)c2)cc(/C(C)=N/N=C(N)N)c1.Cl.Cl.Cl.Cl [CNI-1493]
- ipsilateral and mirror-image SIN-induced allodynias [1]: prevented and reversed

Molecule: CCCCCCC(C)(C)c1cc(O)c2c(c1)OC(C)(C)[C@@H]1CC=C(CO)C[C@@H]21 [HU210]
- C-fibre mediated post-discharge response of spinal neurones (spinal neurones; spinal administration 0.5-500 ng/50 microl, sham operated rats): significantly reduced
- Adelta-fibre evoked responses of spinal neurones (spinal neurones; spinal administration, both sham operated and nerve injured rats): significantly reduced
- Adelta-fibre evoked responses (spinal neurones; [6]): 48+/−5 % of control
- overall C-fibre evoked response (spinal neurones; [6]): 54+/−8 % of control
- post-discharge response (spinal neurones; [6]): 28+/−12 % of control
- C- or Abeta-fibre evoked responses of spinal neurones (spinal neurones; systemic administration, nerve injured rats): did not significantly reduce

Molecule: [Cl-].[Cl-].[Mn+2].c1cc2nc(c1)CN[C@@H]1CCCC[C@H]1NCCN[C@@H]1CCCC[C@H]1NC2 [M40403]
- anti-hyperalgesic effects with naloxone (superoxide): not reversed

Molecule: CC(=O)CCCCn1c(=O)c2c(ncn2C)n(C)c1=O [Pentoxifylline]
- nerve root injury and swelling (dorsal root ganglion compartment syndrome) (nerve root injury): prevented

Molecule: CNS(=O)(=O)Cc1ccc2[nH]cc(CCN(C)C)c2c1 [Sumatriptan]
- nerve fiber induced plasma extravasation (trigeminal nerve fibers): blocks
- nerve fiber mediated vasodilatation and dural arterial flow (trigeminal nerve fibers): only minor effects

Molecule: N=C(N)NCCCCN [agmatine]
- production of nitric oxide (NOS-2): inhibits

Molecule: CN(C)CCC=C1c2ccccc2CCc2ccccc21 [amitriptyline]
- secretion of the anti-inflammatory cytokine interleukin-10 (interleukin-10): significant increase

Molecule: Oc1cc2c(cc1O)CN(C(=S)NCCc1ccc(Cl)cc1)CCC2 [capsazepine]
- noxious evoked responses of spinal neurones (spinal VR1 receptors): reduced

Molecule: CNCCCN1c2ccccc2CCc2ccccc21 [desipramine]
- secretion of the anti-inflammatory cytokine interleukin-10 (interleukin-10): significant increase

Molecule: O=C(O)CC(O)(C(=O)O)C(F)C(=O)O (stereo not shown) [fluorocitrate]
- ipsilateral and mirror-image SIN-induced allodynias [1]: reversed

Molecule: CC(C)Cc1ccc(C(C)C(=O)O)cc1 (stereo not shown) [ibuprofen]
- mechanical allodynia induced by intraneural TNF (COX): reduced
- PGE2 levels in injured nerves and DRG (prostaglandin E2 (PGE2)): reversed

Molecule: CCCn1cnc2c1c(=O)n(CCCCC(C)=O)c(=O)n2C [propentofylline]
- glial activation and enhanced spinal proinflammatory cytokines (glial activation; following peripheral nerve injury): inhibit
- analgesic activity of morphine (glial activation; propentofylline treatment, neuropathic pain): restoration

Molecule: O=C1CCC(N2C(=O)c3ccccc3C2=O)C(=O)N1 (stereo not shown) [thalidomide]
- epineurial IL-10 immunoreactive macrophages and recovery of endoneurial IL-10-IR (TNF-alpha; CCI): enhanced
- thermal hyperalgesia and mechanical allodynia (TNF-alpha; CCI): reduces
- endoneurial IL-1 beta-immunoreactivity and IL-6-IR (TNF-alpha; CCI, lesioned rat sciatic nerve): not altered
- increase of endoneurial TNF-alpha (TNF-alpha; first week after CCI, immunohistochemistry and ELISA): reduced
- decrease in CGRP-IR and SP-IR in the dorsal horn (TNF-alpha; operated animals): not influenced
- increase in met-enkephalin in the dorsal horn (TNF-alpha; operated animals): further enhanced

Molecule: IL-6: cytokine interleukin-6
- electrically evoked C-fibre, initial C-fibre, post discharge and wind-up ([2]; following neuropathy, spinal): dose-related inhibition
- electrically evoked neuronal responses ([2]; naive rats, spinal 100-500 ng): no significant effect
- mechanical neuronal responses ([2]; neuropathic rats, spinal): markedly inhibited
- sensitization of the heat-evoked CGRP release (nociceptors): did not induce heat sensitization

Molecule: IL-8: cytokine interleukin-8
- sensitization of the heat-evoked CGRP release (nociceptors): not

Molecule: TNF-alpha
- maximum effect on heat-evoked CGRP release (nociceptors): 350%
- EC(50) of heat sensitization of CGRP release (nociceptors): 3.1 ng/mL

B1: IL-10: natural anti-inflammatory cytokine (protein, UniProt P29456 19-178, looked up)
Interleukin-10: SKGHSIRGDNNCTHFPVSQTHMLRELRAAFSQVKTFFQKKDQLDNILLTDSLLQDFKGYLGCQALSEMIKFYLVEVMPQAENHGPEIKEHLNSLGEKLKTLWIQLRRCHRFLPCENKSKAVEQVKNDFNKLQDKGVYKAMNEFDIFINCIEAYVTLKMKN
- inflammatory mediator TNF-alpha after SCI (spinal cord injury; rats with SCI): decrease
- less spinal cord tissue loss than in untreated rats (spinal cord injury; single injection within half an hour of SCI): 49%

B2: nerve growth factor: prototypic member of the neurotrophin family (protein, UniProt P25427 122-241, looked up)
Beta-nerve growth factor: SSTHPVFHMGEFSVCDSVSVWVGDKTTATDIKGKEVTVLGEVNINNSVFKQYFFETKCRAPNPVESGCRGIDSKHWNSYCTTTHTFVKALTTDDKQAAWRFIRIDTACVCVLSRKAARRG
- adverse event [3]: induction of pain has been the major adverse event
- hyperalgesia [4]: rapid onset of hyperalgesia

B3: IL-1 beta: proinflammatory cytokine interleukin-1 beta (protein, UniProt Q63264 117-268, looked up)
Interleukin-1 beta: VPIRQLHCRLRDEQQKCLVLSDPCELKALHLNGQNISQQVVFSMSFVQGETSNDKIPVALGLKGLNLYLSCVMKDGTPTLQLESVDPKQYPKKKMEKRFVFNKIEVKTKVEFESAQFPNWYISTSQAEHRPVFLGNSNGRDIVDFTMEPVSS
- wind-up scores ([5]; monoarthritic rats, any dose): did not significantly change
- wind-up activity ([5]; higher doses (8.0 ng)): marginal insignificant effect
- wind-up activity ([5]; low i.t. doses 0.03-2.0 ng): dose-dependently enhanced
- maximum effect on heat-evoked CGRP release (nociceptors): ~600%
- EC(50) of heat sensitization of CGRP release (nociceptors): 2.7 ng/mL
